Measurements as given in patent publication US20250320246A1, “3-AZASTEROID COMPOUNDS FOR THE TREATMENT OF DISEASES RELATED TO MITROCHONDRIAL FUNCTION” (NZP UK LIMITED, priority 2022, published 2025).

Tested on: sporadic PD patient fibroblasts
Assay: Cellular ATP levels in sporadic PD patient fibroblasts, Preliminary ATP assay
Assay type: cell-based, human
Settings: Homo sapiens, Fibroblast, 24 h, % of vehicle treated sPD fibroblasts, 3 sporadic PD patients; for activity at 0.1 µM: 100 nM, read-out: Average ATP Response 100 nM; for activity at 1 µM: read-out: Average ATP Response 1 μM
Experimental: In some cases, a preliminary ATP protocol was used in which EC50 was not determined. The preliminary ATP protocol is generally as described in Mortiboys et al 2008. Briefly, fibroblasts were cultured and plated into white, clear-bottom 384 well plates at a concentration of 4000 cells per well in 50 μl of media volume. The plates are left overnight in an incubator to allow the fibroblasts to adhere to the plate surface. The following morning the Glucose based medium is replaced with 25 μl of Galactose based medium. The cells were then dosed with 100 nM and 1 μM concentrations of the compounds using a ECHO 550 liquid handling system. After dosing the wells are topped up with a further 25 μl of Galactose based medium and then left in an incubator for 24 hours. Following this incubation, the medium is removed from the plate and the wells are washed twice with sterile PBS. The wells are filled with 20 μl of Sterile PBS followed by 10 μl of Lysis solution from the ATPlite™ Luminescence ATP detection assay system (Perkin Elmer), including 14 cell free wells to use as blank controls. The plate is then placed on a rotary shaker for 10 mins at 700 rpm. Following the shaking 10 μl of ATP substrate solution (Perkin Elmer) is added to each well and a further 5 min of shaking. The plate is then incubated in the dark for 10 minutes prior to reading. Using a FLUOstar® Omega plate reader, luminescence intensity is recorded. Following the ATP assay the plates are immediately assayed for DNA content in a CyQUANT® assay.
Immediately following The ATP assay DNA content is assessed with the CyQUANT® NF Cell Proliferation Assay Kit (ThermoFisher). CyQUANT® buffer is prepared immediately before the assay and is comprised of 2 μl CyQUANT® dye per ml×1 HBSS solution. 10 μl of CyQUANT® buffer is added to each well. Cell plates were then incubated for 1 hour before being read on a FLUOStar® Plate reader with excitation at 497 nm and emission at 520 nm.
The ATP Quantification for each well is determined as set out above.

C[C@H](CCCC(=O)O)[C@H]1CC[C@H]2[C@@H]3[C@@H](O)C[C@@H]4CN(C(=O)OCc5ccccc5)CC[C@]4(C)[C@H]3CC[C@]12C [Compound 50b, N-(benzyloxycarbonyl)-3-aza-7β-hydroxy-24-homo-5β-cholan-25-oic acid]
activity at 0.1 µM: 101%
activity at 1 µM: 99.8%

C[C@H](CCC(=O)NCCS(=O)(=O)O)[C@H]1CC[C@H]2[C@@H]3[C@@H](O)C[C@@H]4CNCC[C@]4(C)[C@H]3CC[C@]12C [Compound 51a, N-(3-Aza-7β-hydroxy-5β-cholan-24-amide)-ethylsulfonic acid]
activity at 0.1 µM: 101%
activity at 1 µM: 107%

C[C@H](CCC(=O)NCC(=O)O)[C@H]1CC[C@H]2[C@@H]3[C@@H](O)C[C@@H]4CNCC[C@]4(C)[C@H]3CC[C@]12C [Compound 52a, N-(3-Aza-7β-hydroxy-5β-cholan-24-amide)-acetic acid]
activity at 0.1 µM: 106%
activity at 1 µM: 110%

C[C@H](CCC(=O)N[C@@H](COC(C)(C)C)C(=O)O)[C@H]1CC[C@H]2[C@@H]3[C@@H](O)C[C@@H]4CN(C)CC[C@]4(C)[C@H]3CC[C@]12C [Compound 53a, N-(3-Methyl-aza-7β-hydroxy-5β-cholan-24-oyl)-(2S)-2-amino-3-[(2-methylpropan-2-yl)oxy]propanoic acid]
activity at 0.1 µM: 109%
activity at 1 µM: 102%

C[C@H](CCC(=O)N[C@H](CC(=O)O)c1ccccc1)[C@H]1CC[C@H]2[C@@H]3[C@@H](O)C[C@@H]4CN(C)CC[C@]4(C)[C@H]3CC[C@]12C [Compound 54a, N-(3-Methyl-aza-7β-hydroxy-5β-cholan-24-oyl)-(R)-3-amino-3-phenylpropanoic acid]
activity at 0.1 µM: 109%
activity at 1 µM: 107%

C[C@H](CCC(=O)Nc1ccc(F)cc1)[C@H]1CC[C@H]2[C@@H]3[C@@H](O)C[C@@H]4CN(C)CC[C@]4(C)[C@H]3CC[C@]12C [Compound 55a, N-(3-Methyl-aza-7β-hydroxy-5β-cholan-24-oyl)-1-amino-4-fluorobenzene]
activity at 0.1 µM: 110%
activity at 1 µM: 109%

C[C@H](CCC(=O)N1CCOCC1)[C@H]1CC[C@H]2[C@@H]3[C@@H](O)C[C@@H]4CNCC[C@]4(C)[C@H]3CC[C@]12C [Compound 56a, N-(3-Aza-7β-hydroxy-5β-cholan-24-oyl)-morpholine]
activity at 0.1 µM: 109%
activity at 1 µM: 100%

C[C@H](CCC(=O)N[C@@H](CO)C(=O)O)[C@H]1CC[C@H]2[C@@H]3[C@@H](O)C[C@@H]4CNCC[C@]4(C)[C@H]3CC[C@]12C [Compound 57a, N-(3-Aza-7β-hydroxy-5β-cholan-24-oyl)-(S)-2-amino-3-hydroxypropanoic acid]
activity at 0.1 µM: 109%
activity at 1 µM: 107%

C[C@H](CCC(=O)NCC(F)C(=O)O)[C@H]1CC[C@H]2[C@@H]3[C@@H](O)C[C@@H]4CNCC[C@]4(C)[C@H]3CC[C@]12C (stereo partly drawn) [Compound 58a, N-(3-Aza-7β-hydroxy-5β-cholan-24-oyl)-3-amino-2-fluoropropanoic acid]
activity at 0.1 µM: 102%
activity at 1 µM: 103%

C[C@H](CCC(=O)N(C1CCCCC1)C1CCCCC1)[C@H]1CC[C@H]2[C@@H]3[C@@H](O)C[C@@H]4CN(C)CC[C@]4(C)[C@H]3CC[C@]12C [Compound 59a, N-(Cyclohexyl)-N-(3-methyl-aza-7β-hydroxy-5β-cholan-24-oyl)-cyclohexanamine]
activity at 0.1 µM: 106%
activity at 1 µM: 99.7%

C[C@H](CCC(=O)Nc1ccc(C(=O)O)cc1)[C@H]1CC[C@H]2[C@@H]3[C@@H](O)C[C@@H]4CNCC[C@]4(C)[C@H]3CC[C@]12C [Compound 60a, N-(3-Aza-7β-hydroxy-5β-cholan-24-oyl)-4-aminobenzoic acid]
activity at 0.1 µM: 102%
activity at 1 µM: 102%

CSCC[C@H](NC(=O)CC[C@@H](C)[C@H]1CC[C@H]2[C@@H]3[C@@H](O)C[C@@H]4CNCC[C@]4(C)[C@H]3CC[C@]12C)C(=O)O [Compound 61a, N-(3-Aza-7β-hydroxy-5β-cholan-24-oyl)-(S)-2-amino-4-(methylthio)butanoic acid]
activity at 0.1 µM: 105%
activity at 1 µM: 108%

C[C@H](CCC(=O)NCCC(=O)O)[C@H]1CC[C@H]2[C@@H]3[C@@H](O)C[C@@H]4CNCC[C@]4(C)[C@H]3CC[C@]12C [Compound 62a, N-(3-Aza-7β-hydroxy-5β-cholan-24-amide)-propanoic acid]
activity at 0.1 µM: 108%
activity at 1 µM: 108%

CC(C)OC(=O)c1ccc(NC(=O)CC[C@@H](C)[C@H]2CC[C@H]3[C@@H]4[C@@H](O)C[C@@H]5CNCC[C@]5(C)[C@H]4CC[C@]23C)cc1 [Compound 63a, N-(3-Aza-7β-hydroxy-5β-cholan-24-oyl)-(isopropyl-4-aminobenzoate)]
activity at 0.1 µM: 106%
activity at 1 µM: 104%

CC(C)[C@H](NC(=O)CC[C@@H](C)[C@H]1CC[C@H]2[C@@H]3[C@@H](O)C[C@@H]4CNCC[C@]4(C)[C@H]3CC[C@]12C)C(=O)O [Compound 65a, N-(3-Aza-7β-hydroxy-5β-cholan-24-oyl)-(S)-2-amino-3-methylbutanoic acid]
activity at 0.1 µM: 111%
activity at 1 µM: 108%

CC[C@H](C)[C@H](NC(=O)CC[C@@H](C)[C@H]1CC[C@H]2[C@@H]3[C@@H](O)C[C@@H]4CNCC[C@]4(C)[C@H]3CC[C@]12C)C(=O)O [Compound 66a, N-(3-Aza-7β-hydroxy-5β-cholan-24-oyl)-(2S,3S)-2-amino-3-methylpentanoic acid]
activity at 0.1 µM: 109%
activity at 1 µM: 111%

C[C@H](CCC(=O)N(C)CC(=O)O)[C@H]1CC[C@H]2[C@@H]3[C@@H](O)C[C@@H]4CNCC[C@]4(C)[C@H]3CC[C@]12C [Compound 67a, N-Methyl-N-(3-aza-7β-hydroxy-5β-cholan-24-oyl)-glycine]
activity at 0.1 µM: 108%
activity at 1 µM: 107%

C[C@H](NC(=O)CC[C@@H](C)[C@H]1CC[C@H]2[C@@H]3[C@@H](O)C[C@@H]4CNCC[C@]4(C)[C@H]3CC[C@]12C)C(=O)O [Compound 68a, N-(3-Aza-7β-hydroxy-5β-cholan-24-oyl)-(S)-2-aminopropanoic acid]
activity at 0.1 µM: 109%
activity at 1 µM: 99%

C[C@H](CCCC(=O)N[C@@H](CC(=O)O)C(=O)O)[C@H]1CC[C@H]2[C@@H]3[C@@H](O)C[C@@H]4CNCC[C@]4(C)[C@H]3CC[C@]12C [Compound 70b, N-(3-Aza-7β-hydroxy-25-homo-5β-cholan-25-oyl)-(S)-2-aminobutanedioic acid]
activity at 0.1 µM: 106%
activity at 1 µM: 107%

C[C@H](CCCC(=O)N[C@@H](COC(C)(C)C)C(=O)O)[C@H]1CC[C@H]2[C@@H]3[C@@H](O)C[C@@H]4CNCC[C@]4(C)[C@H]3CC[C@]12C [Compound 71b, N-(3-Aza-7β-hydroxy-25-homo-5β-cholan-25-oyl)-(2S)-2-amino-3-[(2-methylpropan-2-yl)oxy]propanoic acid]
activity at 0.1 µM: 106%
activity at 1 µM: 104%

C[C@H](CCCC(=O)NCCS(=O)(=O)O)[C@H]1CC[C@H]2[C@@H]3[C@@H](O)C[C@@H]4CNCC[C@]4(C)[C@H]3CC[C@]12C [Compound 72b, N-(3-Aza-7β-hydroxy-25-homo-5β-cholan-25-amide)-ethylsulfonic acid]
activity at 0.1 µM: 102%
activity at 1 µM: 112%

C[C@H](CCCC(=O)N[C@@H](Cc1ccccc1)C(=O)O)[C@H]1CC[C@H]2[C@@H]3[C@@H](O)C[C@@H]4CNCC[C@]4(C)[C@H]3CC[C@]12C [Compound 73b, N-(3-Aza-7β-hydroxy-25-homo-5β-cholan-25-oyl)-(S)-2-amino-3-phenylpropanoic acid]
activity at 0.1 µM: 99.6%
activity at 1 µM: 100%

CC(CC(=O)O)NC(=O)CCC[C@@H](C)[C@H]1CC[C@H]2[C@@H]3[C@@H](O)C[C@@H]4CNCC[C@]4(C)[C@H]3CC[C@]12C (stereo partly drawn) [Compound 74b, N-(3-Aza-7β-hydroxy-25-homo-5β-cholan-25-oyl)-3-aminobutanoic acid]
activity at 0.1 µM: 103%
activity at 1 µM: 98.5%
